This passage reports IC50 results from patent publication US20260070945A1, “MACROCYCLIC IMMUNOMODULATORS” (Bristol-Myers Squibb Company, priority 2022, published 2026).

Where a SMILES comes first, the peptide text is derived from it. Bridges are numbered along the chain shown (N, C = ends). [ ]: non-standard residue; d: D form. The star is where a group is joined. ξ: configuration not given here. Phe(4-CH2CH2COOH) = N[C@@H](Cc1ccc(CCC(=O)O)cc1)C(=O)O; Phe(3-CF3) = N[C@@H](Cc1cccc(C(F)(F)F)c1)C(=O)O; Tyr(3,5-F2) = N[C@@H](Cc1cc(F)c(O)c(F)c1)C(=O)O; Phe(4-COOH) = N[C@@H](Cc1ccc(C(=O)O)cc1)C(=O)O; Bip = N[C@@H](Cc1ccc(-c2ccccc2)cc1)C(=O)O; Phe(3-Me) = Cc1cccc(C[C@H](N)C(=O)O)c1; NH(CH2)12COOH = O=C(O)CCCCCCCCCCCCN*; Val(3-OH) = CC(C)(O)[C@H](N)C(=O)O; hArg = N=C(N)NCCCC[C@H](N)C(=O)O; 4Pal = N[C@@H](Cc1ccncc1)C(=O)O; 2Thi = N[C@@H](Cc1cccs1)C(=O)O; Cha = N[C@@H](CC1CCCCC1)C(=O)O; Cit = NC(=O)NCCC[C@H](N)C(=O)O; Ile(3ξ) = CCC(C)[C@H](N)C(=O)O; Thr(3ξ) = CC(O)[C@H](N)C(=O)O; Carboxymethyl = O=C(O)C*; NMeA = CN[C@@H](C)C(=O)O; Orn = NCCC[C@H](N)C(=O)O; Aun = NCCCCCCCCCCC(=O)O; Dab = NCC[C@H](N)C(=O)O; Dap = NC[C@H](N)C(=O)O; AEEA = NCCOCCOCC(=O)O; Sar = CNCC(=O)O

T1 sequence (Q15116 25-288): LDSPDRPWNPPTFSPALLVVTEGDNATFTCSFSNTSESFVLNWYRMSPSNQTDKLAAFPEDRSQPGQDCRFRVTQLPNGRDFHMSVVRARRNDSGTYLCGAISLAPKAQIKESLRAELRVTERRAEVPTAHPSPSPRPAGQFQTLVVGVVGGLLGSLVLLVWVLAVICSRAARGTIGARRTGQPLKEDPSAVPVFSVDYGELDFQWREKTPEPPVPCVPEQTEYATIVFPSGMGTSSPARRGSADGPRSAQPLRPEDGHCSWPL

One assay has as its target T1, PD-1/PD-L1 interaction (PE-labeled human PD-L1-Ig binding to Jurkat cell line over-expressing human PD-1) (Homo sapiens, UniProt Q15116).
T1 construct: expressed in transfected cells; host or cells: Jurkat
As to the kind of experiment: Jurkat-PD-1 Cell Binding High-Content Screening Assay (CBA). The conditions noted are these: Jurkat-hPD-1 cells, PE-labeled PD-L1-Ig 20 nM final; read-out: Jurkat HPD1 PDL1 IC50. In outline: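 High-content imaging read-out of PE-PD-L1-Ig binding (20 nM final, 1 h) to Jurkat-hPD-1 cells, after 2 h compound exposure at 37 °C in DMEM with 10% FCS. Nuclei counterstained with Hoechst 33342 after paraformaldehyde fixation.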
As for `CC(C)C[C@@H]1NC(=O)[C@H](Cc2c[nH]c3ccccc23)NC(=O)[C@H](CC(=O)O)NC(=O)[C@H](Cc2ccc(OCC(=O)O)cc2)NC(=O)[C@H](Cc2ccccc2)NC(=O)CSC[C@@H](C(=O)N[C@@H](CCN)C(=O)NCCCCCCCCCCC(=O)O)NC(=O)[C@H](CCC(=O)O)NC(=O)[C@H](C(C)C)NC(=O)[C@H](CC(C)C)NC(=O)[C@H](CC(N)=O)NC(=O)[C@@H](CC(C)C)NC(=O)[C@H](C)N(C)C(=O)[C@H](C(C)C)NC(=O)[C@H](Cc2ccc(-c3ccccc3)cc2)NC1=O` [Example 1334] ({CH2CO}-FY(Carboxymethyl)DWL[Bip]V[NMeA][dL]NLVEC[Dab][Aun]-OH; thioether N-14), the IC50 (usually the midpoint of a concentration-inhibition curve) turned out to be 117 nM.
The same measure, in the same setting: the figure for `CC(C)C[C@H]1NC(=O)[C@H](C)N(C)C(=O)[C@H](Cc2ccc(OCC(=O)O)cc2)NC(=O)[C@H](Cc2ccc(-c3ccccc3)cc2)NC(=O)[C@H](Cc2ccc(OCC(=O)O)cc2)NC(=O)[C@H](Cc2c[nH]c3ccccc23)NC(=O)[C@H](CC(=O)O)NC(=O)[C@H](Cc2ccncc2)NC(=O)[C@H](Cc2ccc(OCC(=O)O)cc2)NC(=O)CSC[C@@H](C(=O)N[C@@H](CCN)C(=O)NCCCCCCCCCCC(=O)O)NC(=O)[C@H](CCCn2cc(CN(C)C(=O)c3ccc(F)cc3)nn2)NC(=O)[C@H](C(C)C)NC(=O)[C@H](CC2CCCCC2)NC(=O)[C@H](CCN)NC1=O` [Example 1110] is 23.1 nM; for `CC(C)C[C@@H]1NC(=O)[C@H](Cc2c[nH]c3ccccc23)NC(=O)[C@H](CC(=O)O)NC(=O)[C@H](Cc2ccc(OCC(=O)O)cc2)NC(=O)[C@H](Cc2ccc(OCC(=O)O)cc2)NC(=O)CSC[C@@H](C(=O)NCCOCCOCC(=O)NCCCCCCCCCCC(=O)O)NC(=O)[C@H](CO)NC(=O)[C@H](Cc2cnc[nH]2)NC(=O)[C@H](CC2CCCCC2)NC(=O)[C@H](CCC(=O)O)NC(=O)[C@@H](CC(C)C)NC(=O)[C@H](C)N(C)C(=O)[C@H](C(C)C)NC(=O)[C@H](Cc2ccc(-c3ccccc3)cc2)NC1=O` [Example 2449] ({CH2CO}-Y(Carboxymethyl)Y(Carboxymethyl)DWL[Bip]V[NMeA][dL]E[Cha]HSC[AEEA][Aun]-OH; thioether N-14) it is 272 nM.
As for `CC(C)C[C@@H]1NC(=O)[C@H](Cc2c[nH]c3ccccc23)NC(=O)[C@H](CC(=O)O)NC(=O)[C@H](Cc2ccc(OCC(=O)O)cc2)NC(=O)[C@H](CCCCNC(=N)N)NC(=O)CSC[C@@H](C(=O)NCCOCCOCC(=O)N[C@@H](CCCNC(N)=O)C(=O)NCCCCCCCCCCC(=O)O)NC(=O)[C@H](CCCNC(N)=O)NC(=O)[C@H](C(C)C)NC(=O)[C@H](CC2CCCCC2)NC(=O)[C@H](CCN)NC(=O)[C@@H](CC(C)C)NC(=O)[C@H](C)N(C)C(=O)[C@H](C(C)C)NC(=O)[C@H](Cc2ccc(-c3ccccc3)cc2)NC1=O` [Example 2183] ({CH2CO}-[hArg]Y(Carboxymethyl)DWL[Bip]V[NMeA][dL][Dab][Cha]V[Cit]C[AEEA][Cit][Aun]-OH; thioether N-14), the IC50 worked out at 19.2 nM.
On the same count and under the same terms, to `Cc1cccc(C[C@@H]2NC(=O)[C@H](CC(=O)O)NC(=O)[C@H](Cc3ccc(C(=O)O)cc3)NC(=O)[C@H](CCN)NC(=O)CSC[C@@H](C(=O)N[C@@H](CCN)C(=O)NCCCCCCCCCCC(=O)O)NC(=O)[C@H](CO)NC(=O)[C@H](C(C)(C)O)NC(=O)[C@H](CC3CCCCC3)NC(=O)[C@H](CCN)NC(=O)[C@@H](CC(C)C)NC(=O)[C@H](C)N(C)C(=O)[C@H](Cc3ccc(OCC(=O)O)cc3)NC(=O)[C@H](Cc3ccc(-c4ccccc4)cc3)NC(=O)[C@H](Cc3cc(F)c(O)c(F)c3)NC2=O)c1` [Example 1290] ({CH2CO}-[Dab][Phe(4-COOH)]D[Phe(3-Me)][Tyr(3,5-F2)][Bip]Y(Carboxymethyl)[NMeA][dL][Dab][Cha][Val(3-OH)]SC[Dab][Aun]-OH; thioether N-14) belongs 20.1 nM.
On to `CC[C@H](C)[C@@H]1NC(=O)[C@H](Cc2ccc(-c3ccccc3)cc2)NC(=O)[C@H](CC(C)C)NC(=O)[C@H](Cc2c[nH]c3ccccc23)NC(=O)[C@H](CC(=O)O)NC(=O)[C@H](Cc2ccc(OCC(=O)O)cc2)NC(=O)[C@H](CCCCNC(=N)N)NC(=O)CSC[C@@H](C(=O)NCCOCCOCC(=O)N[C@@H](CCN)C(=O)NCCCCCCCCCCC(=O)O)NC(=O)[C@H](CCCCN)NC(=O)[C@H](C(C)C)NC(=O)[C@H](CC2CCCCC2)NC(=O)[C@H](CCN)NC(=O)[C@H]2CCCN2C(=O)[C@H](C)N(C)C1=O` [Example 2186] ({CH2CO}-[hArg]Y(Carboxymethyl)DWL[Bip]I[NMeA][dP][Dab][Cha]VKC[AEEA][Dab][Aun]-OH; thioether N-14), for which the IC50 was determined as 158 nM.
Regarding `Cc1cccc(C[C@@H]2NC(=O)[C@H](CC(=O)O)NC(=O)[C@H](Cc3ccc(OCC(=O)O)cc3)NC(=O)[C@H](C(C)O)NC(=O)CSC[C@@H](C(=O)N(C)CC(=O)NCCOCCOCC(=O)NCCCCCCCCCCC(=O)O)NC(=O)[C@H](CCC(=O)O)NC(=O)[C@H](C(C)C)NC(=O)[C@H](CC3CCCCC3)NC(=O)[C@H](CCN)NC(=O)[C@@H](CC(C)C)NC(=O)[C@H](C)N(C)C(=O)[C@H](Cc3ccc(O)cc3)NC(=O)[C@H](Cc3ccc(-c4ccccc4)cc3)NC(=O)[C@H](C(C)C)NC2=O)c1` (stereo partly drawn) [Example 2270] ({CH2CO}-[Thr(3ξ)]Y(Carboxymethyl)D[Phe(3-Me)]V[Bip]Y[NMeA][dL][Dab][Cha]VEC[Sar][AEEA][Aun]-OH; thioether N-14), the half-maximal inhibitory concentration (IC50) was determined as 802 nM.
Take `Cc1cccc(C[C@@H]2NC(=O)[C@H](CC(=O)O)NC(=O)[C@H](Cc3ccc(C(=O)O)cc3)NC(=O)[C@H](Cc3cccs3)NC(=O)CSC[C@@H](C(=O)N[C@@H](CCN)C(=O)NCCCCCCCCCCC(=O)O)NC(=O)[C@H](CO)NC(=O)[C@H](C(C)(C)O)NC(=O)[C@H](CC3CCCCC3)NC(=O)[C@H](CCN)NC(=O)[C@@H](CC(C)C)NC(=O)[C@H](C)N(C)C(=O)[C@H](Cc3ccc(OCC(=O)O)cc3)NC(=O)[C@H](Cc3ccc(-c4ccccc4)cc3)NC(=O)[C@H](Cc3ccc(OCC(=O)O)cc3)NC2=O)c1` [Example 1284] ({CH2CO}-[2Thi][Phe(4-COOH)]D[Phe(3-Me)]Y(Carboxymethyl)[Bip]Y(Carboxymethyl)[NMeA][dL][Dab][Cha][Val(3-OH)]SC[Dab][Aun]-OH; thioether N-14): the half-maximal inhibitory concentration (IC50) worked out at 16.9 nM.
The same measure, in the same setting: to `CCC(C)[C@@H]1NC(=O)[C@H](Cc2ccc(-c3ccccc3)cc2)NC(=O)[C@H](CC(C)C)NC(=O)[C@H](Cc2c[nH]c3ccccc23)NC(=O)[C@H](CC(=O)O)NC(=O)[C@H](Cc2ccc(OCC(=O)O)cc2)NC(=O)[C@H](Cc2ccncc2)NC(=O)CSC[C@@H](C(=O)N[C@@H](CCCN)C(=O)NCCOCCOCC(=O)NCCCCCCCCCCC(=O)O)NC(=O)[C@H](C(C)O)NC(=O)[C@H](C(C)C)NC(=O)[C@H](CC2CCCCC2)NC(=O)[C@H](CCN)NC(=O)[C@@H](CC(C)C)NC(=O)[C@H](C)N(C)C1=O` (stereo partly drawn) [Example 2040] ({CH2CO}-[4Pal]Y(Carboxymethyl)DWL[Bip][Ile(3ξ)][NMeA][dL][Dab][Cha]V[Thr(3ξ)]C[Orn][AEEA][Aun]-OH; thioether N-14) belongs 8.7 nM; to `Cc1cccc(C[C@@H]2NC(=O)[C@H](CC(=O)O)NC(=O)[C@H](Cc3ccc(OCC(=O)O)cc3)NC(=O)[C@H](CN)NC(=O)CSC[C@@H](C(=O)N[C@@H](CCN)C(=O)NCCCCCCCCCCC(=O)O)NC(=O)[C@H]([C@@H](C)O)NC(=O)[C@H](C(C)C)NC(=O)[C@H](CC3CCCCC3)NC(=O)[C@H](CCN)NC(=O)[C@@H](CC(C)C)NC(=O)[C@H](C)N(C)C(=O)[C@H](Cc3ccc(OCC(=O)O)cc3)NC(=O)[C@H](Cc3ccc(-c4ccccc4)cc3)NC(=O)[C@H](Cc3ccc(CCC(=O)O)cc3)NC2=O)c1` [Example 1262] ({CH2CO}-[Dap]Y(Carboxymethyl)D[Phe(3-Me)][Phe(4-CH2CH2COOH)][Bip]Y(Carboxymethyl)[NMeA][dL][Dab][Cha]VTC[Dab][Aun]-OH; thioether N-14), 8.9 nM.

The same assay, now with this note: PE-labeled PD-L1-Ig 20 nM final, Jurkat-hPD-1 cells; read-out: Jurkat HPD1 PDL1 IC50.
`CC(=O)NCCCC[C@@H]1NC(=O)[C@H](C(C)(C)O)NC(=O)[C@H](CC2CCCCC2)NC(=O)[C@H](CCN)NC(=O)[C@@H](CC(C)C)NC(=O)[C@H](C)N(C)C(=O)[C@H](CCC(N)=O)NC(=O)[C@H](Cc2ccc(-c3ccccc3)cc2)NC(=O)[C@H](Cc2ccc(OCC(=O)O)cc2)NC(=O)[C@H](Cc2cccc(C(F)(F)F)c2)NC(=O)[C@H](CC(=O)O)NC(=O)[C@H](Cc2ccc(OCC(=O)O)cc2)NC(=O)[C@H](CC(C)C)NC(=O)CSC[C@@H](C(=O)N[C@@H](CCN)C(=O)NCCCCCCCCCCCCC(=O)O)NC1=O` [Example 2626] ({CH2CO}-LY(Carboxymethyl)D[Phe(3-CF3)]Y(Carboxymethyl)[Bip]Q[NMeA][dL][Dab][Cha][Val(3-OH)]K(Ac)C[Dab]-{NH(CH2)12COOH}; thioether N-14): the IC50 worked out at 9 nM.
On the same count and under the same terms, the figure for `CC(C)C[C@@H]1NC(=O)[C@H](Cc2c[nH]c3ccccc23)NC(=O)[C@H](CC(=O)O)NC(=O)[C@H](Cc2ccc(C(=O)O)cc2)NC(=O)[C@H](Cc2ccc(OCC(=O)O)cc2)NC(=O)CSC[C@@H](C(=O)NCCOCCOCC(=O)NCCCCCCCCCCC(=O)O)NC(=O)[C@H](Cc2cnc[nH]2)NC(=O)[C@H](C(C)O)NC(=O)[C@H](CC2CCCCC2)NC(=O)[C@H](CCN)NC(=O)[C@@H](CC(C)C)NC(=O)[C@H](C)N(C)C(=O)[C@H](C(C)C)NC(=O)[C@H](Cc2ccc(-c3ccccc3)cc2)NC1=O` (stereo partly drawn) [Example 2435] ({CH2CO}-Y(Carboxymethyl)[Phe(4-COOH)]DWL[Bip]V[NMeA][dL][Dab][Cha][Thr(3ξ)]HC[AEEA][Aun]-OH; thioether N-14) is 25.5 nM.
